Results as given in patent publication US9801850B2, “Antibacterial agent” (OSAKA UNIVERSITY, priority 2009, dated 2017).
≈ marks a conversion by molar mass, not a printed value.

Columns and labels:
fungi = assay: Antifungal effect over the fungi of Table 8; format: cell-based; settings: respective types of fungi of Table 8
Protocol: Regarding the respective type strains shown in Tables 7 and 8 below, the MIC measurement was performed using the antibacterial agent solutions of Example 2 in the same manner as described in Section (2) of Example 1, except for the following. The antibacterial agent solutions were prepared by dissolving the EGCG derivatives of Example 2 in 100% DMSO and then diluting the resultant mixtures with sterile distilled water. The respective strains were derived from ATCC or NCTC. As Moraxella catarrhalis and Aspergillus fumigatus, clinical isolates thereof without an acquired resistance mechanism were used. For nutrient-rich bacteria, namely, Streptococcus pneumoniae ATCC49619, Streptococcus pyogenes ATCC19615, Streptococcus agalactiae ATCC13813, Moraxella catarrhalis, and Haemophilis influenzae ATCC49766, Strepto Haemo supplement (Eiken Chemical Co., Ltd.) was added to media for culturing them. The MIC measurement with respect to fungi was carried out by a broth microdilution method using a RPMI1640/MOPS (pH 7.0) medium in accordance with CLSI guidelines. About 2×10^3 cells/ml of fungi were inoculated to the medium. After the culture at 35° C. for 24 to 48 hours, the MIC was determined. Also, regarding the antibacterial agent solution of Comparative Example 2, the MIC was measured in the same manner.

[1] = test system: Pseudomonas aeruginosa ATCC7700; assay: Antibacterial spectrum MIC (Table 7); format: cell-based
How it was run: (§1)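 CLSI broth microdilution in Mueller-Hinton broth: compounds were dissolved in DMSO, diluted with sterile water and tested at final 8–512 μg/ml against about 1×10^5 CFU/ml inoculum. After 18 h at 37 °C, the MIC was read and OD600 turbidity was recorded.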

[2] = test system: Proteus vulgaris ATCC13315; assay: Antibacterial spectrum MIC (Table 7); format: cell-based
How it was run: as §1

MRSA ATCC43300 = assay: Bactericidal effect, number of remaining viable cells; format: cell-based, Staphylococcus aureus; settings: EGCG-C16 25 μg/ml, 0 to 6 hours, FIG. 2(A)
Protocol: (§2) The bactericidal effect of EGCG-C16 against MRSA ATCC43300, E. coli MG1655, and P. aeruginosa PAO1 was measured. Each strain of bacteria was cultured using an MH-broth as a medium.
(§3) The antibacterial agent solution and the bacterial culture solution were mixed together and the resultant mixture was cultured at 37° C. in the same manner as described in the above section (2), except that the final concentration of the EGCG-C16 in the mixture were set to: 6.25 μg/ml or 25 μg/ml for the MRSA; 200 μg/ml for the E. coli; and 50 μg/ml, 100 μg/ml, and 200 μg/ml for the P. aeruginosa. The number of viable cells in the mixture of the antibacterial agent solution and the bacterial culture solution was set to 1×10^5 CFU/ml. Then, after a lapse of a predetermined time from the start of the culture (0 hours, 2 hours, 4 hours, and 6 hours), the culture solution was collected and diluted with physiological saline so as to prepare 10-fold dilution series of solutions. 100 μl of each of the diluted bacterial culture solutions was placed on a petri dish. The diluted bacterial culture solution was hardened by mixing it with 10 ml of a Trypticase-soy Agar (BBL) that was kept at 50° C., and cultured at 37° C. overnight. Then, the number of the formed colonies (CFU/ml) was counted, and the number of remaining viable cells was measured. […]

E. coli MG1655 = assay: as above; format: cell-based, Escherichia coli; settings: EGCG-C16 200 μg/ml, 0 to 6 hours, FIG. 2(B)
Protocol: as §2, §3

P. aeruginosa PAO1 = assay: as above; format: cell-based, Pseudomonas aeruginosa; settings: EGCG-C16 50, 100, 200 μg/ml, 0 to 6 hours, FIG. 2(C)
Protocol: as §2, §3

Compound	antifungal effect (fungi)	MIC [1]	MIC [2]	other results
EGCG-palmitoleate [EGCG-C16E]	highest antifungal effect			
EGCG-stearate [EGCG-C18]		32 µg/mL		
EGCG-α-linoleate [EGCG-C18TE]	highest antifungal effect			
EGCG-linolate [EGCG-C18DE]			32 µg/mL	
EGCG-palmitate [EGCG-C16]				number of remaining viable cells (MRSA ATCC43300): not only inhibited the propagation but also reduced the number of viable cells; number of remaining viable cells (E. coli MG1655): bacteriostatic action; number of remaining viable cells (P. aeruginosa PAO1): bacteriostatic action
O=C(O[C@@H]1Cc2c(O)cc(O)cc2O[C@@H]1c1cc(O)c(O)c(O)c1)c1cc(O)c(O)c(O)c1 [EGCG, Epigallocatechin gallate, reference compound]		64 µg/mL (≈ 140 µM)	64 µg/mL (≈ 140 µM)	
